Assay results: ChEMBL document CHEMBL5046322, “Discovery of SHR2415, a Novel Pyrrole-Fused Urea Scaffold ERK1/2 Inhibitor” (ACS Med Chem Lett, 2022); call rule not given here
One block for each molecule: values may come before it.

Assays:
[1] = AUC in plasma of BALB/c mouse xenografted with human COLO 205 cells at 25 mg/kg, po for 14 days; assay type: ADME, organism-based; parameters: time 14 day, dose 25 mg/kg
[2] = biological target: Glycogen synthase kinase-3 beta (Homo sapiens, UniProt P49841); assay: Inhibition of GSK3beta (unknown origin)
Chain of Glycogen synthase kinase-3 beta (P49841 whole entry): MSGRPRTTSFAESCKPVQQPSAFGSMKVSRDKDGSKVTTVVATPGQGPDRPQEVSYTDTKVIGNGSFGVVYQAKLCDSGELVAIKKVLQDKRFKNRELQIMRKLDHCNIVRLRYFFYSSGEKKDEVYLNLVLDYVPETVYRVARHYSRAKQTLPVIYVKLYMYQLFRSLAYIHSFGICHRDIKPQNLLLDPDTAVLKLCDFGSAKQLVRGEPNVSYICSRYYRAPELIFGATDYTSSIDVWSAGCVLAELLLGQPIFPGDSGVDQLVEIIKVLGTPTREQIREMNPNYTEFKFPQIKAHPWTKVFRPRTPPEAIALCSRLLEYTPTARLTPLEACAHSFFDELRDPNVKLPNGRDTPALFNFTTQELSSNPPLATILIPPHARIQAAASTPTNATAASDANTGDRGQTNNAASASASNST

[3] = Plasma protein binding in human; assay type: ADME, cell-free; settings: read-out: PPB (converted)
[4] = Clearance in Beagle dog plasma at 0.5 mg/kg, iv and measured after 24 hrs by LC/MS/MS analysis; assay type: ADME, organism-based, Canis lupus familiaris
[5] = Oral bioavailability in Sprague-Dawley rat at 2 mg/kg; assay type: ADME, organism-based; settings: in vivo
[6] = biological target: Cyclin-dependent kinase 2 (Homo sapiens, UniProt P24941); assay: Inhibition of CDK2 (unknown origin)
[7] = Oral bioavailability in Beagle dog at 2 mg/kg; assay type: ADME, organism-based, Canis lupus familiaris; settings: in vivo
[8] = Half life in Beagle dog at 2 mg/kg, po; settings: in vivo
[9] = AUC (0 to t) in Sprague-Dawley rat at 2 mg/kg, po; assay type: ADME, organism-based; parameters: dose 2 mg/kg; settings: in vivo
[10] = Oral bioavailability in ICR mouse at 2 mg/kg; assay type: ADME, organism-based; settings: in vivo
[11] = AUC (0 to t) in ICR mouse at 2 mg/kg, po; assay type: ADME, organism-based; parameters: dose 2 mg/kg; settings: in vivo
[12] = AUC in tumor of BALB/c mouse xenografted with human COLO 205 cells at 25 mg/kg, po for 14 days; assay type: ADME, organism-based, Neoplasm; parameters: time 14 day, dose 25 mg/kg
[13] = Cmax in tumor of BALB/c mouse xenografted with human COLO 205 cells at 25 mg/kg, po for 14 days; assay type: ADME, organism-based, Neoplasm; parameters: route oral, dose 25 mg/kg, time 14 day
[14] = Cmax in Sprague-Dawley rat plasma at 1 mg/kg, iv and measured after 24 hrs by LC/MS/MS analysis; assay type: ADME, organism-based; parameters: route intravenous, dose 1 mg/kg, time 24 hrs
[15] = Clearance in Sprague-Dawley rat plasma at 1 mg/kg, iv and measured after 24 hrs by LC/MS/MS analysis; assay type: ADME, organism-based
[16] = AUC (0 to t) in Beagle dog at 2 mg/kg, po; assay type: ADME, organism-based, Canis lupus familiaris; parameters: dose 2 mg/kg; settings: in vivo
[17] = in vivo; settings: BALB/c, mouse, tumour, po, 25 mg/kg
Description: Ratio of AUC in tumor to plasma of BALB/c mouse xenografted with human COLO 205 cells at 25 mg/kg, po for 14 days

[18] = system: COLO 205; assay: Antitumor activity against human COLO 205 cells xenografted in BALB/c nude mouse assessed as TGI at 25 mg/kg, po measured after 14 days; assay type: functional; settings: COLO 205, po, 336 h, time 14 day, read-out: TGI
[19] = Clearance in ICR mouse plasma at 1 mg/kg, iv and measured after 24 hrs by LC/MS/MS analysis mg/kg, iv; assay type: ADME, organism-based
[20] = Half life in Sprague-Dawley rat at 2 mg/kg, po; settings: in vivo
[21] = Cmax in plasma of BALB/c mouse xenografted with human COLO 205 cells at 25 mg/kg, po for 14 days; assay type: ADME, organism-based; parameters: route oral, dose 25 mg/kg, time 14 day
[22] = Cmax in Beagle dog plasma at 0.5 mg/kg, iv and measured after 24 hrs by LC/MS/MS analysis; assay type: ADME, organism-based, Canis lupus familiaris; parameters: route intravenous, time 24 hrs, dose 0.5 mg/kg
[23] = system: COLO 205; assay: Antiproliferative activity against human COLO 205 cells assessed as reduction in cell viability for 72 hrs by cell titre glo luminescence assay; assay type: functional, cell-based
[24] = biological target: Cytochrome P450 2C9 (Homo sapiens, UniProt P11712); assay: Inhibition of CYP2C9 in human liver microsomes
Chain of Cytochrome P450 2C9 (P11712 whole entry): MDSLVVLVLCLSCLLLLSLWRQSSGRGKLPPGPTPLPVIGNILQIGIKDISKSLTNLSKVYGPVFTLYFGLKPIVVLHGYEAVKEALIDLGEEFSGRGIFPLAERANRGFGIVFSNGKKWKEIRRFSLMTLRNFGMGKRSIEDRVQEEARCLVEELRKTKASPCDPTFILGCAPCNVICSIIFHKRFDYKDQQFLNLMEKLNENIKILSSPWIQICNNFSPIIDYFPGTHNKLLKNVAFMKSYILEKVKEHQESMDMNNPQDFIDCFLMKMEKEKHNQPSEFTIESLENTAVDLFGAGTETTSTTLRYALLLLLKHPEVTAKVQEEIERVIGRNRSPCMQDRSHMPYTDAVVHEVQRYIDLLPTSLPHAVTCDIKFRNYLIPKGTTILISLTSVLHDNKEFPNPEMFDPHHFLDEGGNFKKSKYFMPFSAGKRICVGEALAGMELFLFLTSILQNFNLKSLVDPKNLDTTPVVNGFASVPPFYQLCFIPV

[25] = biological target: Cytochrome P450 2D6 (Homo sapiens, UniProt P10635); assay: Inhibition of CYP2D6 in human liver microsomes
Chain of Cytochrome P450 2D6 (P10635 whole entry): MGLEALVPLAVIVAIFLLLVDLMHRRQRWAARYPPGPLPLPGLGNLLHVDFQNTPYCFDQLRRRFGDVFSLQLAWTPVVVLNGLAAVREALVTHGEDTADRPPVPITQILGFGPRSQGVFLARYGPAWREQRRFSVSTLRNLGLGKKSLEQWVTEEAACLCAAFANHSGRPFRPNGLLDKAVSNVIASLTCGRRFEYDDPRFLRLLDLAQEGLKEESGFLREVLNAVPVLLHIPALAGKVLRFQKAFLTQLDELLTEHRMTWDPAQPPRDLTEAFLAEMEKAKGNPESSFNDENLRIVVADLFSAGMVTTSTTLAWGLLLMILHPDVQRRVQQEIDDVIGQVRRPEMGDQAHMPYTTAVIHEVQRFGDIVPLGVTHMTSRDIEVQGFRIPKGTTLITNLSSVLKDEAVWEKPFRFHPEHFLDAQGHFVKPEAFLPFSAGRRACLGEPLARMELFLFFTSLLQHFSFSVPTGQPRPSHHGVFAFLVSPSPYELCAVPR

[26] = biological target: T1, Cytochrome P450 1A2 (Homo sapiens, UniProt P05177); assay: Inhibition of CYP1A2 in human liver microsomes
T1 sequence (P05177 whole entry): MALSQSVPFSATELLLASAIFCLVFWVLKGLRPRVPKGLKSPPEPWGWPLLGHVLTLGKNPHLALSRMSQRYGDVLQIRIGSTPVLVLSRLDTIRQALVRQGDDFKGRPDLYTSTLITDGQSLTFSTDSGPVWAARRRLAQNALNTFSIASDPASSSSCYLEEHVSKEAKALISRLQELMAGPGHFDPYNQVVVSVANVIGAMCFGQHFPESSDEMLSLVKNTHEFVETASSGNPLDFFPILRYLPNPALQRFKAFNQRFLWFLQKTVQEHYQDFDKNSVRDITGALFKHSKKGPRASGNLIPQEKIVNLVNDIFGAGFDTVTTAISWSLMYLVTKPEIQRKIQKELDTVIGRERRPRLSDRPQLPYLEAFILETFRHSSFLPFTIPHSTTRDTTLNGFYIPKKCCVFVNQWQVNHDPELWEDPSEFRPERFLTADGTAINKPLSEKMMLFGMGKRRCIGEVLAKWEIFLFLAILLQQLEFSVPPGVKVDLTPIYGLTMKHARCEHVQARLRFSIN

[27] = biological target: Cytochrome P450 3A4 (Homo sapiens, UniProt P08684); assay: Inhibition of CYP3A4 in human liver microsomes
Chain of Cytochrome P450 3A4 (P08684 whole entry): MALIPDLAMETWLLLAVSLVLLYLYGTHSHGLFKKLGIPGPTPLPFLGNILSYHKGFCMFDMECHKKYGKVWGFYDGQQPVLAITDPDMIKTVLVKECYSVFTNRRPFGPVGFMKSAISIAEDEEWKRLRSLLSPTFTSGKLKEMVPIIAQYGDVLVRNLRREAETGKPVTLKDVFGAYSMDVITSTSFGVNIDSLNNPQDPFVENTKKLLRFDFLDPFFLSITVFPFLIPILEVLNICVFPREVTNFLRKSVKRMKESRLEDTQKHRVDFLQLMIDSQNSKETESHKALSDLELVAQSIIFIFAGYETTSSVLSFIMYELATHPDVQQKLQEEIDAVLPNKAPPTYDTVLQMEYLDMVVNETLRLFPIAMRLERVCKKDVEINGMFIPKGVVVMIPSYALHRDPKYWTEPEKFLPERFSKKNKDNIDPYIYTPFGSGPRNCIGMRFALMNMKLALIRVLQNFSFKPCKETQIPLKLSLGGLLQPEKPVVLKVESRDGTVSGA

[28] = biological target: Cytochrome P450 2C19 (Homo sapiens, UniProt P33261); assay: Inhibition of CYP2C19 in human liver microsomes
Chain of Cytochrome P450 2C19 (P33261 whole entry): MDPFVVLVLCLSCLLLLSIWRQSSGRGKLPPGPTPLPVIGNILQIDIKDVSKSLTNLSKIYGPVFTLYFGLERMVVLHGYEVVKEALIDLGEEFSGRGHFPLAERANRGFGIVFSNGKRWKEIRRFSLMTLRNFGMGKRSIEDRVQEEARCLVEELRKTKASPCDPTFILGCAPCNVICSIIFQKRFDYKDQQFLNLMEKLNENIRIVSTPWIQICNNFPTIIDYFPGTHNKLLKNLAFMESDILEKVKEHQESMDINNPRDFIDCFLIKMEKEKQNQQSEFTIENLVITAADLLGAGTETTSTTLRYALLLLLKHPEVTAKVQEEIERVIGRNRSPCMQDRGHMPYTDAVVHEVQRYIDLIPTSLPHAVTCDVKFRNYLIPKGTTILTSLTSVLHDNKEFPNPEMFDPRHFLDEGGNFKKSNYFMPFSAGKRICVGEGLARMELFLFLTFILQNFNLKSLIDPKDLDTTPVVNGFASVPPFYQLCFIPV

[29] = biological target: Mitogen-activated protein kinase 1 (Homo sapiens, UniProt P28482); assay: Inhibition of ERK2 (unknown origin) measured after 2 hr by ADP-glo assay
Chain of Mitogen-activated protein kinase 1 (P28482 whole entry): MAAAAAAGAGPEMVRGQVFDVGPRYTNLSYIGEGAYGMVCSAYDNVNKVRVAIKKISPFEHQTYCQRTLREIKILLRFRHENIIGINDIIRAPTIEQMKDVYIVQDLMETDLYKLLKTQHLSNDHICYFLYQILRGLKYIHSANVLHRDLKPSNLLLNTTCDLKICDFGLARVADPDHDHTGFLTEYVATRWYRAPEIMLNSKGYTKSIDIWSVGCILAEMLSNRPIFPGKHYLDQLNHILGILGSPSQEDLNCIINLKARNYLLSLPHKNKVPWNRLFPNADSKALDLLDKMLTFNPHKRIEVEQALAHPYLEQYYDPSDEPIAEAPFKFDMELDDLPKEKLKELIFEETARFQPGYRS

[30] = Homo sapiens, COLO 205, 72 h, read-out: IC50

SMILES: Cc1cnc(Nc2ccnn2C)nc1-c1cc2n(c1)C(=O)N([C@H](CO)c1cccc(Cl)c1)C2
AUC at 336 h [1]: 21400 ng·h/mL | IC50 [2]: 64.3 nM | fraction unbound [3]: 0.016 | clearance [4]: 10.5 mL/min/kg | bioavailability [5]: 45.8% | IC50 [6]: 99.4 nM | bioavailability [7]: 101% | half-life [8]: 3.2 h | AUC(0-t) [9]: 726 ng·h/mL | bioavailability [10]: 90.8% | AUC(0-t) [11]: 2460 ng·h/mL | AUC at 336 h [12]: 30300 ng·h/mL | Cmax [13]: 9460 ng/mL | Cmax [14]: 219 ng/mL | clearance [15]: 25.3 mL/min/kg | AUC(0-t) [16]: 3270 ng·h/mL | Kp at 336 h [17]: 1.42 | inhibition in vivo at 25 mg/kg [18]: 112% | clearance [19]: 12.2 mL/min/kg | half-life [20]: 2.1 h | Cmax [21]: 5150 ng/mL | Cmax [22]: 526 ng/mL | IC50 [23, 30]: 44.6 nM

IC50 [23, 30]: 81 nM
SMILES: C[C@@H](CO)Nc1ncc(Cl)c(-c2cc3n(c2)C(=O)N([C@H](CO)c2cccc(Cl)c2)C3)n1

IC50 [23, 30]: 293 nM
SMILES: Cc1cnc(Nc2ccnn2C)nc1-c1cc2n(c1)C(=O)N(Cc1ccc(F)c(F)c1)C2

IC50 [24]: > 5000 nM | IC50 [25]: 350 nM | IC50 [26]: > 5000 nM | IC50 [27]: > 5000 nM | IC50 [28]: > 5000 nM | IC50 [23, 30]: 31.9 nM
SMILES: Cn1nccc1Nc1ncc(Cl)c(-c2cc3n(c2)C(=O)N([C@H](CO)c2cccc(Cl)c2)C3)n1

IC50 ([23]; colo 205): Not Active
SMILES: C[C@H](CO)Nc1ncc(Cl)c(-c2cc3n(c2)C(=O)N([C@H](CO)c2cccc(Cl)c2)C3)n1

IC50 [29]: 201 nM | IC50 [23, 30]: > 10000 nM
SMILES: Cn1nccc1Nc1nccc(N2CC[C@H](C(=O)N[C@H](CO)c3cccc(Cl)c3)C2)n1

IC50 [29]: 9.5 nM | IC50 [23, 30]: 94.9 nM
SMILES: Cc1cnc(Nc2ccnn2C)nc1-c1cc2n(c1)C(=O)N([C@H](CO)c1ccc(F)c(Cl)c1)C2

IC50 [29]: 5.8 nM | IC50 [23, 30]: 104 nM
SMILES: O=C1N([C@H](CO)c2cccc(Cl)c2)Cc2cc(-c3nc(NC4CCOCC4)ncc3Cl)cn21

IC50 [29]: 237 nM | IC50 ([23]; colo 205): Not Active
SMILES: CC(C)Nc1cc(-c2cc3n(c2)C(=O)N([C@H](CO)c2cccc(Cl)c2)C3)c(Cl)cn1

IC50 [29]: 9.2 nM | IC50 [23, 30]: 856 nM
SMILES: Cc1cnc(Nc2ccnn2C)nc1-c1ccc2c(c1)CCN([C@H](CO)c1cccc(Cl)c1)C2=O

IC50 [29]: 2.4 nM | IC50 [23, 30]: 89.6 nM
SMILES: COc1cc(F)cc([C@@H](CO)N2Cc3cc(-c4nc(Nc5ccnn5C)ncc4C)cn3C2=O)c1

IC50 [29]: 4830 nM | IC50 ([23]; colo 205): Not Active
SMILES: Cc1cnc(Nc2ccnn2C)nc1-c1ccc2c(c1)CN([C@H](CO)c1cccc(Cl)c1)C2=O
